Structures are written as SMILES.

This assay addresses recombinant human SAE enzyme (Homo sapiens (Human), UniProt Q9UBT2). The assay is described as follows: SAE HTRF enzyme assay. It is filed as biochemical. As to conditions: for Percent Inhibition: Concentration 0.111 μM; for IC50: class symbols A/B/C. The procedure, abridged:
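Sumoylation of Ubc9-GST by SAE was followed at low ATP (0.5 μM), pH 7.5, 24° C. for 105 min. Product was detected by HTRF with antibody pairs against Flag and GST tags.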

recombinant human SAE enzyme, sequence (Q9UBT2 whole entry): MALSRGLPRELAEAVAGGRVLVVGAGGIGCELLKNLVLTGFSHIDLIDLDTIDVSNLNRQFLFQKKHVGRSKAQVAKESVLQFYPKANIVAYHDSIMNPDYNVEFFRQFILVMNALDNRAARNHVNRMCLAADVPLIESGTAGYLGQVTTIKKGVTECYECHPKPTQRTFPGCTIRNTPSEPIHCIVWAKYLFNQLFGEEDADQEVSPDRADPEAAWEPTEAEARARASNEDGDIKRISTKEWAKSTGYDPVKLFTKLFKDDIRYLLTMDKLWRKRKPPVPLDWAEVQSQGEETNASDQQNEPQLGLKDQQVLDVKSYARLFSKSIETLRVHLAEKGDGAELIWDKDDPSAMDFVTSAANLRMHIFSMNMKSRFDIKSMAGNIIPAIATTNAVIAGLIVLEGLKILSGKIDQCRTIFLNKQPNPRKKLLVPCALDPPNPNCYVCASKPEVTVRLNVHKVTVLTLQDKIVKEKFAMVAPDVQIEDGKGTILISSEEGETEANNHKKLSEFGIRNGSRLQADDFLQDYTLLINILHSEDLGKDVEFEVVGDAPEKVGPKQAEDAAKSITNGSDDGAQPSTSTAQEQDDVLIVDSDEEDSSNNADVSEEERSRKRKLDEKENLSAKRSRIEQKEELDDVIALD
recombinant human SAE enzyme, sequence (Q9UBE0 whole entry partner): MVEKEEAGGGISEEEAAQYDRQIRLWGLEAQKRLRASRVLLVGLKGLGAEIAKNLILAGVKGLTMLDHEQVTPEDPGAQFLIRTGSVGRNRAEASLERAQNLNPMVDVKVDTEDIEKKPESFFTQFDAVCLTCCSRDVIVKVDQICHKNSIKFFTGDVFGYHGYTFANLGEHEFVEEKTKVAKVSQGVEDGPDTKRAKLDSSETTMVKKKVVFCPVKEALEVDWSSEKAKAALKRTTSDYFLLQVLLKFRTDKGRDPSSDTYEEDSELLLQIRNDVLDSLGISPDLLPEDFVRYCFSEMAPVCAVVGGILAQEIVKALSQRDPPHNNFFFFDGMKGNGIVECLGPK

The IC50 is the point on the concentration scale where inhibition reaches its midpoint. In the case of `Cc1sc(C(=O)c2cncnc2N[C@@H]2C[C@H](COS(N)(=O)=O)[C@@H](O)C2)cc1[C@H]1NCCc2ccc(Br)cc21` (single isomer, unassigned) [I-248a, [(1R,2S,4R)-4-{[5-({4-[(1S)-7-bromo-1,2,3,4-tetrahydroisoquinolin-1-yl]-5-methyl-2-thienyl}carbonyl)pyrimidin-4-yl]amino}-2-hydroxycyclopentyl]methyl sulfamate or [(1R,2S,4R)-4-{([5-({4-[(1R)-7-bromo-1,2,3,4-tetrahydroisoquinolin-1-yl]-5-methyl-2-thienyl}carbonyl)pyrimidin-4-yl]amino}-2-hydroxycyclopentyl]methyl sulfamate], the “Percent Inhibition” value was found to be 99 and the IC50 was less than 10 nM.
The corresponding values for `Cc1sc(C(=O)c2cncnc2N[C@@H]2C[C@H](COS(N)(=O)=O)[C@@H](O)C2)cc1[C@H]1NCCc2ccc(Br)cc21` (single isomer, unassigned) [I-248b, [(1R,2S,4R)-4-{[5-({4-[(1S)-7-bromo-1,2,3,4-tetrahydroisoquinolin-1-yl]-5-methyl-2-thienyl}carbonyl)pyrimidin-4-yl]amino}-2-hydroxycyclopentyl]methyl sulfamate or [(1R,2S,4R)-4-{[5-({4-[(1R)-7-bromo-1,2,3,4-tetrahydroisoquinolin-1-yl]-5-methyl-2-thienyl}carbonyl)pyrimidin-4-yl]amino}-2-hydroxycyclopentyl]methyl sulfamate] are 95 and less than 10 nM.
The corresponding values for `NS(=O)(=O)OC[C@H]1C[C@@H](Nc2ncncc2C(=O)c2cc([C@@H]3NCCc4ccc(Cl)cc43)c(Cl)s2)[C@H](O)[C@@H]1O` (single isomer, unassigned) [I-249a, [(1R,2R,3S,4R)-4-{[5-({5-chloro-4-[(1R)-7-chloro-1,2,3,4-tetrahydroisoquinolin-1-yl]-2-thienyl}carbonyl)pyrimidin-4-yl]amino}-2,3-dihydroxycyclopentyl]methyl sulfamate or [(1R,2R,3S,4R)-4-{[5-({5-chloro-4-[(1S)-7-chloro-1,2,3,4-tetrahydroisoquinolin-1-yl]-2-thienyl}carbonyl)pyrimidin-4-yl]amino}-2,3-dihydroxycyclopentyl]methyl sulfamate] are 100 and less than 10 nM.
For `NS(=O)(=O)OC[C@H]1C[C@@H](Nc2ncncc2C(=O)c2cc([C@@H]3NCCc4ccc(Cl)cc43)c(Cl)s2)[C@H](O)[C@@H]1O` (single isomer, unassigned) [I-249b, [(1R,2R,3S,4R)-4-{[5-({5-chloro-4-[(1R)-7-chloro-1,2,3,4-tetrahydroisoquinolin-1-yl]-2-thienyl}carbonyl)pyrimidin-4-yl]amino}-2,3-dihydroxycyclopentyl]methyl sulfamate or [(1R,2R,3S,4R)-4-{[5-({5-chloro-4-[(1S)-7-chloro-1,2,3,4-tetrahydroisoquinolin-1-yl]-2-thienyl}carbonyl)pyrimidin-4-yl]amino}-2,3-dihydroxycyclopentyl]methyl sulfamate], in that order: 92 and less than 10 nM.
`Cc1sc(C(=O)c2cncnc2N[C@@H]2C[C@H](COS(N)(=O)=O)[C@@H](O)[C@H]2O)cc1[C@@H]1OCCc2ccccc21` (single isomer, unassigned) [I-250a, [(1R,2R,3S,4R)-4-{[5-({4-[(1R)-3,4-dihydro-1H-isochromen-1-yl]-5-methyl-2-thienyl}carbonyl)pyrimidin-4-yl]amino}-2,3-dihydroxycyclopentyl]methyl sulfamate or [(1R,2R,3S,4R)-4-{[5-({4-[(1S)-3,4-dihydro-1H-isochromen-1-yl]-5-methyl-2-thienyl}carbonyl)pyrimidin-4-yl]amino}-2,3-dihydroxycyclopentyl]methyl sulfamate]: the “Percent Inhibition” value was 97 and the IC50 was less than 10 nM.
The corresponding values for `Cc1sc(C(=O)c2cncnc2N[C@@H]2C[C@H](COS(N)(=O)=O)[C@@H](O)[C@H]2O)cc1[C@@H]1OCCc2ccccc21` (single isomer, unassigned) [I-250b, [(1R,2R,3S,4R)-4-{[5-({4-[(1R)-3,4-dihydro-1H-isochromen-1-yl]-5-methyl-2-thienyl}carbonyl)pyrimidin-4-yl]amino}-2,3-dihydroxycyclopentyl]methyl sulfamate or [(1R,2R,3S,4R)-4-{[5-({4-[(1S)-3,4-dihydro-1H-isochromen-1-yl]-5-methyl-2-thienyl}carbonyl)pyrimidin-4-yl]amino}-2,3-dihydroxycyclopentyl]methyl sulfamate] are 98 and less than 10 nM.
As for `NS(=O)(=O)OC[C@H]1C[C@@H](Nc2ncncc2C(=O)c2cc([C@@H]3NCCc4ccc(Br)cc43)c(Cl)s2)C[C@@H]1O` (single isomer, unassigned) [I-251a, [(1R,2S,4R)-4-{[5-({4-[(1R)-7-bromo-1,2,3,4-tetrahydroisoquinolin-1-yl]-5-chloro-2-thienyl}carbonyl)pyrimidin-4-yl]amino}-2-hydroxycyclopentyl]methyl sulfamate or [(1R,2S,4R)-4-{([5-({4-[(1S)-7-bromo-1,2,3,4-tetrahydroisoquinolin-1-yl]-5-chloro-2-thienyl}carbonyl)pyrimidin-4-yl]amino}-2-hydroxycyclopentyl]methyl sulfamate], the “Percent Inhibition” value is listed as 100 and the IC50 is less than 10 nM.
The corresponding values for `NS(=O)(=O)OC[C@H]1C[C@@H](Nc2ncncc2C(=O)c2cc([C@@H]3NCCc4ccc(Br)cc43)c(Cl)s2)C[C@@H]1O` (single isomer, unassigned) [I-251b, [(1R,2S,4R)-4-{[5-({4-[(1R)-7-bromo-1,2,3,4-tetrahydroisoquinolin-1-yl]-5-chloro-2-thienyl}carbonyl)pyrimidin-4-yl]amino}-2-hydroxycyclopentyl]methyl sulfamate or [(1R,2S,4R)-4-{[5-({4-[(1S)-7-bromo-1,2,3,4-tetrahydroisoquinolin-1-yl]-5-chloro-2-thienyl}carbonyl)pyrimidin-4-yl]amino}-2-hydroxycyclopentyl]methyl sulfamate] are 97 and less than 10 nM.
As for `C#Cc1ccc2c(c1)[C@H](c1cc(C(=O)c3cncnc3N[C@@H]3C[C@H](COS(N)(=O)=O)[C@@H](O)C3)sc1C)OCC2` (single isomer, unassigned) [I-252a, [(1R,2S,4R)-4-{[5-({4-[(1R)-7-ethynyl-3,4-dihydro-1H-isochromen-1-yl]-5-methyl-2-thienyl}carbonyl)pyrimidin-4-yl]amino}-2-hydroxycyclopentyl]methyl sulfamate or [(1R,2S,4R)-4-{[5-({4-[(1S)-7-ethynyl-3,4-dihydro-1H-isochromen-1-yl]-5-methyl-2-thienyl}carbonyl)pyrimidin-4-yl]amino}-2-hydroxycyclopentyl]methyl sulfamate], the “Percent Inhibition” value was 71 and the IC50 was in the range of 10 to 100 nM.
As for `C#Cc1ccc2c(c1)[C@H](c1cc(C(=O)c3cncnc3N[C@@H]3C[C@H](COS(N)(=O)=O)[C@@H](O)C3)sc1C)OCC2` (single isomer, unassigned) [I-252b, [(1R,2S,4R)-4-{[5-({4-[(1R)-7-ethynyl-3,4-dihydro-1H-isochromen-1-yl]-5-methyl-2-thienyl}carbonyl)pyrimidin-4-yl]amino}-2-hydroxycyclopentyl]methyl sulfamate or [(1R,2S,4R)-4-{([5-({4-[(1S)-7-ethynyl-3,4-dihydro-1H-isochromen-1-yl]-5-methyl-2-thienyl}carbonyl)pyrimidin-4-yl]amino}-2-hydroxycyclopentyl]methyl sulfamate], the “Percent Inhibition” value is recorded as 98 and the IC50 was less than 10 nM.
The corresponding values for `NS(=O)(=O)OC[C@H]1C[C@@H](Nc2ncncc2C(=O)c2cc([C@@H]3NCCc4ccc(Cl)nc43)c(Cl)s2)C[C@@H]1O` (single isomer, unassigned) [I-253a, [(1R,2S,4R)-4-{[5-({5-chloro-4-[(8S)-2-chloro-5,6,7,8-tetrahydro-1,7-naphthyridin-8-yl-2-thienyl}carbonyl)pyrimidin-4-yl]amino}-2-hydroxycyclopentyl]methyl sulfamate or ((1R,2S,4R)-4-{([5-({5-chloro-4-[(8R)-2-chloro-5,6,7,8-tetrahydro-1,7-naphthyridin-8-yl]-2-thienyl}carbonyl)pyrimidin-4-yl]amino}-2-hydroxycyclopentyl]methyl sulfamate] are 99 and less than 10 nM.
For `NS(=O)(=O)OC[C@H]1C[C@@H](Nc2ncncc2C(=O)c2cc([C@@H]3NCCc4ccc(Cl)nc43)c(Cl)s2)C[C@@H]1O` (single isomer, unassigned) [I-253b, [(1R,2S,4R)-4-{[5-({5-chloro-4-[(8S)-2-chloro-5,6,7,8-tetrahydro-1,7-naphthyridin-8-yl]-2-thienyl}carbonyl)pyrimidin-4-yl]amino}-2-hydroxycyclopentyl]methyl sulfamate or [(1R,2S,4R)-4-{[5-({5-chloro-4-[(8R)-2-chloro-5,6,7,8-tetrahydro-1,7-naphthyridin-8-yl]-2-thienyl}carbonyl)pyrimidin-4-yl]amino}-2-hydroxycyclopentyl]methyl sulfamate], in that order: 83 and 10 to 100 nM.
As to `NS(=O)(=O)OC[C@H]1C[C@@H](Nc2ncncc2C(=O)c2cc([C@@H]3OCCc4ccccc43)cs2)C[C@@H]1O` (single isomer, unassigned) [I-254a, [(1R,2S,4R)-4-{[5-({4-[(1R)-3,4-dihydro-1H-isochromen-1-yl]-2-thienyl}carbonyl)pyrimidin-4-yl]amino}-2-hydroxycyclopentyl]methyl sulfamate or [(1R,2S,4R)-4-{[5-({4-[(1S)-3,4-dihydro-1H-isochromen-1-yl]-2-thienyl}carbonyl)pyrimidin-4-yl]amino}-2-hydroxycyclopentyl]methyl sulfamate], the “Percent Inhibition” value is listed as 81 and the IC50 lay within 10 to 100 nM.
